Measured values: PubChem BioAssay AID1919014 (Molecular Pharmacology Branch, DTP, NCI, 2023)

Test system: NCI-H1341 complex spheroids, percent test/control
Assay: Anticancer human tumor NCI-H1341 cell line growth inhibition [AhR];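 further: spheroids exposed to agents for seven days before readout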
Conditions: for IC50: curve of first compound; for viability, T/C: stronger effect = lower value; active means viability on the fitted dose curve at most 10% of control; inactive means the rest
Outline: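 Spheroids combined tumor cells with HUVEC endothelial cells and human MSCs as stroma. AhR antagonists were paired with standard or investigational drugs, each dosed in half-log steps down from near clinical Cmax, or from 10 microM where Cmax was unknown.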

[1] = second compound 0.1 µM, first compound 0.0316 µM
[2] = second compound 0.1 µM, first compound 0.1 µM
[3] = second compound 0.1 µM, first compound 0.316 µM
[4] = second compound 0.1 µM, first compound 1 µM
[5] = second compound 0.316 µM, first compound 0.0316 µM
[6] = second compound 0.316 µM, first compound 0.1 µM
[7] = second compound 0.316 µM, first compound 0.316 µM
[8] = second compound 0.316 µM, first compound 1 µM
[9] = second compound 1 µM, first compound 0.0316 µM
[10] = second compound 1 µM, first compound 0.1 µM
[11] = second compound 1 µM, first compound 0.316 µM
[12] = second compound 1 µM, first compound 1 µM
[13] = second compound 3.16 µM, first compound 0.0316 µM
[14] = second compound 3.16 µM, first compound 0.1 µM
[15] = second compound 3.16 µM, first compound 0.316 µM
[16] = second compound 3.16 µM, first compound 1 µM
[17] = second compound 10 µM, first compound 0.0316 µM
[18] = second compound 10 µM, first compound 0.1 µM
[19] = second compound 10 µM, first compound 0.316 µM
[20] = second compound 10 µM, first compound 1 µM

COc1ccc([C@@H](O)c2cc(-c3ncnc4cc(N5CCOCC5)ccc34)c(F)cc2Cl)nn1 + CC(CO)NC(=O)c1cc(-c2ccc(Cl)cc2)nn(-c2cnn(C)c2)c1=O
1470 nM: IC50 (second compound 0.1 µM)
691 nM: IC50 (second compound 10 µM)
active: viability, T/C (second compound 0.1 µM, first compound 10 µM) 8.94% | viability, T/C (second compound 1 µM, first compound 10 µM) 8.67% | viability, T/C (second compound 3.16 µM, first compound 10 µM) 7.24% | viability, T/C (second compound 10 µM, first compound 10 µM) 7.39%
inactive: viability, T/C [1] 101% | viability, T/C [2] 89.7% | viability, T/C [3] 82.5% | viability, T/C [4] 61% | viability, T/C (second compound 0.1 µM, first compound 3.16 µM) 29.6% | viability, T/C [5] 88% | viability, T/C [6] 93.7% | viability, T/C [7] 72.7% | viability, T/C [8] 48.8% | viability, T/C (second compound 0.316 µM, first compound 3.16 µM) 32.7% | viability, T/C (second compound 0.316 µM, first compound 10 µM) 8.73% | viability, T/C [9] 89.7% | viability, T/C [10] 83.8% | viability, T/C [11] 76.6% | viability, T/C [12] 48.2% | viability, T/C (second compound 1 µM, first compound 3.16 µM) 28.2% | viability, T/C [13] 79.6% | viability, T/C [14] 84.8% | viability, T/C [15] 85.9% | viability, T/C [16] 52.7% | viability, T/C (second compound 3.16 µM, first compound 3.16 µM) 24% | viability, T/C [17] 90.2% | viability, T/C [18] 75.8% | viability, T/C [19] 68.2% | viability, T/C [20] 41.5% | viability, T/C (second compound 10 µM, first compound 3.16 µM) 22.1%
1140 nM: IC50 (second compound 0.316 µM)
1220 nM: IC50 (second compound 3.16 µM)
1060 nM: IC50 (second compound 1 µM)

Nc1ncn(C2CC(O)C(CO)O2)c(=O)n1 (stereo not given) + Cc1cncc(-c2nc(NCCc3c[nH]c4ccccc34)c3ncn(C(C)C)c3n2)c1
inactive: viability, T/C (second compound 0.1 µM, first compound 0.00316 µM) 83% | viability, T/C (second compound 0.1 µM, first compound 0.01 µM) 89.2% | viability, T/C [1] 81.4% | viability, T/C [2] 54.7% | viability, T/C [3] 48.8% | viability, T/C [4] 28.1% | viability, T/C (second compound 0.316 µM, first compound 0.00316 µM) 75.5% | viability, T/C (second compound 0.316 µM, first compound 0.01 µM) 86.1% | viability, T/C [5] 78.2% | viability, T/C [6] 55.6% | viability, T/C [7] 52.1% | viability, T/C [8] 27.9% | viability, T/C (second compound 1 µM, first compound 0.00316 µM) 73% | viability, T/C (second compound 1 µM, first compound 0.01 µM) 82.7% | viability, T/C [9] 68% | viability, T/C [10] 45.3% | viability, T/C [11] 45.9% | viability, T/C [12] 33.3% | viability, T/C (second compound 3.16 µM, first compound 0.00316 µM) 71.4% | viability, T/C (second compound 3.16 µM, first compound 0.01 µM) 72% | viability, T/C [13] 69.2% | viability, T/C [14] 70.2% | viability, T/C [15] 53.7% | viability, T/C [16] 38% | viability, T/C (second compound 10 µM, first compound 0.00316 µM) 25.7% | viability, T/C (second compound 10 µM, first compound 0.01 µM) 26.9% | viability, T/C [17] 21.3% | viability, T/C [18] 19.5% | viability, T/C [19] 20.1% | viability, T/C [20] 18.9%
< 3.16 nM: IC50 (second compound 10 µM)
206 nM: IC50 (second compound 0.1 µM)
481 nM: IC50 (second compound 3.16 µM)
264 nM: IC50 (second compound 0.316 µM)
80.4 nM: IC50 (second compound 1 µM)
